# Patent US4206215A, “Antimicrobial bis-[4-(substituted-amino)-1-pyridinium]alkanes” (Sterling Drug Inc., priority 1977, dated 1980)
# Read-outs that look alike come from different tables or passages of the source.
# Tests used:
# K. pneum. 39645 = assay: In vitro antibacterial activity, MIC (modified Autotiter method); assay type: cell-based, Klebsiella pneumoniae; conditions: Klebsiella pneumoniae, 20 h, 18-20 hours at 37° C.; read-out: MIC K. pneum. 39645
# Outline: (§1)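 Inhibitory concentrations were established by automated serial twofold dilution of the test compound, starting at 1,000 mcg./ml. in solution, into sterile water, followed by inoculated semisynthetic medium (glucose, double strength); final concentrations tested: 500 to 0.06 mcg./ml.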
# S. Aureus Smith = assay: as above; assay type: cell-based, Staphylococcus aureus; conditions: Staphylococcus aureus, 20 h, 18-20 hours at 37° C.; read-out: MIC S. Aureus Smith
# Outline: as §1
# S. pyogen. C203 = assay: as above; assay type: cell-based, Streptococcus pyogenes; conditions: 18-20 hours at 37° C.
# Outline: as §1
# Ps. aerug. MGH-2 = assay: as above; assay type: cell-based, Pseudomonas aeruginosa; conditions: Pseudomonas aeruginosa, 20 h, 18-20 hours at 37° C.; read-out: MIC Ps. aerug. MGH-2
# Outline: as §1
# T. menta. 9129 = assay: In vitro antifungal activity, MIC (modified Autotiter method); assay type: cell-based, Trichophyton mentagrophytes; conditions: Trichophyton mentagrophytes, 20 h, 18-20 hours at 37° C.; read-out: MIC T. menta. 9129
# Outline: as §1
# P. mirab. MGH-1 = assay: In vitro antibacterial activity, MIC (modified Autotiter method); assay type: cell-based, Proteus mirabilis; conditions: Proteus mirabilis, 20 h, 18-20 hours at 37° C.; read-out: MIC P. mirab. MGH-1
# Outline: as §1
# E. Coli ATCC 8739 = assay: Effect of serum on bacteriostatic activity (serial tube dilution test); assay type: cell-based, Escherichia coli; conditions: for Fold Increase in MIC E. Coli ATCC 8739: 40% vs 0% horse serum; for MIC: Escherichia coli, ATCC8739
# Experimental: (§2) Antibacterial effectiveness in the presence of serum was determined for representative examples by the standard serial tube dilution test wherein paired comparisons of minimum inhibitory concentrations (MIC) were determined in the absence and in the presence of heat inactivated (30 min. at 56° C.) horse serum (40%) in the test medium. The results are expressed as the fold increase in MIC (mcg./ml.) versus Staphyloccocus aureus and Escherichia coli caused by the presence of serum and are presented in Table B hereinbelow.
# A. niger 16404 = assay: In vitro antifungal activity, MIC (modified Autotiter method); assay type: cell-based, Aspergillus niger; conditions: Aspergillus niger, 16404, 20 h, 18-20 hours at 37° C.; read-out: MIC A. niger 16404
# Outline: as §1
# S. Aureus ATCC 6538 = assay: Effect of serum on bacteriostatic activity (serial tube dilution test); assay type: cell-based, Staphyloccocus aureus; conditions: for Fold Increase in MIC S. Aureus ATCC 6538: 40% vs 0% horse serum; for MIC: Staphylococcus aureus, ATCC6538
# Experimental: as §2
# E. coli Vogel = assay: In vitro antibacterial activity, MIC (modified Autotiter method); assay type: cell-based, Escherichia coli; conditions: Escherichia coli, 20 h, 18-20 hours at 37° C.; read-out: MIC E. coli Vogel
# Outline: as §1
# E. coli AB1932-1 = assay: as above; assay type: cell-based, Escherichia coli; conditions: Escherichia coli, AB19321, 20 h, 18-20 hours at 37° C.; read-out: MIC E. coli AB1932-1
# Outline: as §1
# E. coli 100/B22 = assay: as above; assay type: cell-based, Escherichia coli; conditions: Escherichia coli, 100/B22, 20 h, read-out: MIC E. coli 100/B22, 18-20 hours at 37° C.
# Outline: as §1
# C. albicans 10231 = assay: In vitro antifungal activity, MIC (modified Autotiter method); assay type: cell-based, Candida albicans; conditions: 18-20 hours at 37° C.
# Outline: as §1
# C. albicans Wisc. = assay: as above; assay type: cell-based, Candida albicans; conditions: Candida albicans, 20 h, 18-20 hours at 37° C.; read-out: MIC C. albicans Wisc.
# Outline: as §1
# [1] = test system: young adult male Swiss-Webster strain albino mice; assay: Acute oral toxicity (ALD50); assay type: in vivo; conditions: suspension in 1% G.T.
# Experimental: (§3) The acute oral toxicity (ALD50) of several representative examples was determined as follows: Groups of 3 young adult male Swiss-Webster strain albino mice were fasted approximately 4 hours before medication and then medicated once orally by stomach tube.
# [2] = Acute oral toxicity (ALD50); assay type: in vivo; conditions: mouse, in vivo, po, mice, suspension in 1% gum tragacanth; read-out: 7-Day ALD50
# Experimental: as §3
# [3] = 40% heat inactivated horse serum, read-out: MIC E. Coli ATCC 8739 40% Serum
# [4] = read-out: MIC E. Coli ATCC 8739 0% Serum
# [5] = 40% heat inactivated horse serum, read-out: MIC S. Aureus ATCC 6538 40% Serum
# [6] = read-out: MIC S. Aureus ATCC 6538 0% Serum
smiles,measurement,setting,value
"CCCCCCCNc1cc[n+](CCCCCCCCCC[n+]2ccc(NCCCCCCC)cc2)cc1 [Example 26, 1,10-bis-[4-(heptylamino)-1-pyridinium]decane dibromide]",MIC,K. pneum. 39645,1.49 µg/mL
same,MIC,S. Aureus Smith,0.37 µg/mL
same,MIC S. pyogen. C203,S. pyogen. C203,1.95 µg/mL
same,MIC,Ps. aerug. MGH-2,11.9 µg/mL
same,MIC,T. menta. 9129,0.75 µg/mL
same,MIC,P. mirab. MGH-1,6 µg/mL
same,Fold Increase in MIC E. Coli ATCC 8739,E. Coli ATCC 8739,16 fold
same,MIC,E. Coli ATCC 8739; [3],7.8 µg/mL
same,MIC,E. Coli ATCC 8739; [4],0.5 µg/mL
same,MIC,A. niger 16404,2.98 µg/mL
same,Fold Increase in MIC S. Aureus ATCC 6538,S. Aureus ATCC 6538,16 fold
same,MIC,S. Aureus ATCC 6538; [5],1.95 µg/mL
same,MIC,S. Aureus ATCC 6538; [6],0.125 µg/mL
same,MIC,E. coli Vogel,0.75 µg/mL
same,MIC,E. coli AB1932-1,0.75 µg/mL
same,MIC,E. coli 100/B22,0.75 µg/mL
same,MIC C. albicans 10231,C. albicans 10231,0.75 µg/mL
same,MIC,C. albicans Wisc.,1.49 µg/mL
same,Mortality 7 Days,[1]; 125 mg/kg oral,0/3
same,Mortality 24 Hrs,[1]; 125 mg/kg oral,0/3
same,Mortality 7 Days,[1]; 250 mg/kg oral,0/3
same,Mortality 24 Hrs,[1]; 250 mg/kg oral,0/3
same,Mortality 7 Days,[1]; 500 mg/kg oral,0/3
same,Mortality 24 Hrs,[1]; 500 mg/kg oral,0/3
same,Mortality 7 Days,[1]; 1000 mg/kg oral,0/3
same,Mortality 24 Hrs,[1]; 1000 mg/kg oral,0/3
same,LD50 at 168 h,[2],> 1000 mg/kg
"CCCCC(CC)CNc1cc[n+](CCCCCCCCCCCC[n+]2ccc(NCC(CC)CCCC)cc2)cc1 (stereo not drawn) [Example 41C, 1,12-bis-[4-(2-ethylhexylamino)-1-pyridinium]dodecane dibromide]",MIC,K. pneum. 39645,1.95 µg/mL
same,MIC,S. Aureus Smith,0.5 µg/mL
same,MIC,"S. pyogen. C203; Streptococcus pyogenes, 20 h, read-out: MIC S. pyogen. C203",0.5 µg/mL
same,MIC,Ps. aerug. MGH-2,3.9 µg/mL
same,MIC,T. menta. 9129,1 µg/mL
same,MIC,P. mirab. MGH-1,3.9 µg/mL
same,Fold Increase in MIC E. Coli ATCC 8739,E. Coli ATCC 8739,64 fold
same,MIC,E. Coli ATCC 8739; [3],62.5 µg/mL
same,MIC,E. Coli ATCC 8739; [4],1 µg/mL
same,MIC,A. niger 16404,3.9 µg/mL
same,Fold Increase in MIC S. Aureus ATCC 6538,S. Aureus ATCC 6538,32 fold
same,MIC,S. Aureus ATCC 6538; [5],7.8 µg/mL
same,MIC,S. Aureus ATCC 6538; [6],0.25 µg/mL
same,MIC,E. coli Vogel,1 µg/mL
same,MIC,E. coli AB1932-1,1 µg/mL
same,MIC,E. coli 100/B22,1 µg/mL
same,MIC,"C. albicans 10231; Candida albicans, 10231, 20 h, read-out: MIC C. albicans 10231",1 µg/mL
same,MIC,C. albicans Wisc.,1 µg/mL
same,Mortality 7 Days,[1]; 125 mg/kg oral,0/3
same,Mortality 24 Hrs,[1]; 125 mg/kg oral,0/3
same,Mortality 7 Days,[1]; 250 mg/kg oral,0/3
same,Mortality 24 Hrs,[1]; 250 mg/kg oral,0/3
same,Mortality 7 Days,[1]; 500 mg/kg oral,0/3
same,Mortality 24 Hrs,[1]; 500 mg/kg oral,0/3
same,Mortality 7 Days,[1]; 1000 mg/kg oral,0/3
same,Mortality 24 Hrs,[1]; 1000 mg/kg oral,0/3
same,LD50 at 168 h,[2],> 1000 mg/kg
